Values of other authors in patent US7655257B2, “Sustained delivery of an active agent using an implantable system” (Intarcia Therapeutics, Inc., priority 1996, dated 2010).

Legend:
[1] = test system: gonadotropin secretion
[2] = test system: prostatic tumors in Noble and Dunning male rats and DMBA-induced mammary tumors in female rats
[3] = continuous administration, humans

## CCNC(=O)[C@@H]1CCCN1C(=O)[C@H](CCCNC(=N)N)NC(=O)[C@H](CC(C)C)NC(=O)[C@@H](CC(C)C)NC(=O)[C@H](Cc1ccc(O)cc1)NC(=O)[C@H](CO)NC(=O)[C@H](Cc1c[nH]c2ccccc12)NC(=O)[C@H](Cc1c[nH]cn1)NC(=O)[C@@H]1CCC(=O)N1 [Leuprolide acetate]
[1]; [3]
  level of LH and FSH: decreased level of LH and FSH
  testosterone in males: reduced to castrate levels
[1]; oral
  activity when given orally: not active
[2]
  growth of hormone-dependent tumors: inhibition of the growth
